Laboratory results published in PubChem BioAssay AID504903 (Southern Research Specialized Biocontainment Screening …, 2011).
pIC50: −log10 of the molar value. Calls of active or inactive are those of the source. No rule for the calls is given here.

Tests used:
[1] = M. tuberculosis growth inhibition, dose response, H37Rv, 7H9 media, purified and synthesized compounds, set 5 (AID 504903); settings: M. tuberculosis H37Rv growth in 7H9 medium; at 100 µM (top of the series)
[2] = test system: M. tuberculosis H37Rv growth in 7H9 medium; experiment: as above; settings: for pIC50: measured here: M. tuberculosis growth IC50

## O=C(CSc1ncccn1)NC1CCCCC1
[1]
  growth inhibition: -3.3% (inactive)

## CCSc1nc(C)c(C)c(=O)[nH]1
[1]
  growth inhibition: -1.81% (inactive)

## Cc1cc(Br)ccc1NC(=O)c1cnc(N2CCN(c3ccccn3)CC2)c2ccccc12
[2]
  IC90: 6160 nM
  pIC50: 6.17

## CCC(Sc1nc2c(c(=O)[nH]1)CCC2)C(=O)Nc1cccc(OC)c1 (stereo not drawn)
[1]
  growth inhibition: 0.63% (inactive)

## O=c1[nH]c(=S)[nH]c2ccccc12
[1]
  growth inhibition: -4.57% (inactive)

## NC(=O)CSc1nc2ccccc2c(=O)[nH]1
[1]
  growth inhibition: 3.23% (inactive)

## Cc1nc(SCC(=O)NC2CCCCC2)[nH]c(=O)c1C
[2]
  IC90: 230 nM
  pIC50: > 8.00

## CC(Sc1nc2ccccc2c(=O)[nH]1)C(=O)NC1CCCCC1 (stereo not drawn)
[1]
  growth inhibition: -8.54% (inactive)

## CCSc1nc2ccccc2c(=O)[nH]1
[1]
  growth inhibition: -4.06% (inactive)

## O=c1[nH]c(SCc2ccccc2Cl)nc2c1CCCC2
[1]
  growth inhibition: -4.24% (inactive)

## CCC(Sc1nc2ccccc2c(=O)[nH]1)C(=O)Nc1cccc(OC)c1 (stereo not drawn)
[1]
  growth inhibition: -2.52% (inactive)

## CC(C)NC(=O)CSc1nc2ccccc2c(=O)[nH]1
[2]
  IC90: 18800 nM
  pIC50: 5.32

## NC[C@H]1O[C@H](O[C@H]2[C@H](O)[C@@H](O[C@H]3O[C@H](CO)[C@@H](O)[C@H](N)[C@H]3O)[C@H](N)C[C@@H]2N)[C@H](O)[C@@H](O)[C@@H]1O
[2]
  IC90: 2360 nM
  pIC50: 5.94

## CCOC1OC(=O)C(Cl)=C1Nc1ccccc1C (stereo not drawn)
[2]
  IC90: 5450 nM
  pIC50: 5.54

## CC1CCN(C(=O)C2CCN(c3nnc(-n4cccc4)s3)CC2)CC1
[2]
  IC90: 4660 nM
  pIC50: 5.59

## CCOC(=O)CSc1nc(C)c(C)c(=O)[nH]1
[1]
  growth inhibition: -4.51% (inactive)

## CC(C)CCNC(=O)CSc1nc2ccccc2c(=O)[nH]1
[2]
  IC90: 120 nM
  pIC50: > 7.22

## CCC(Sc1nc2ccccc2c(=O)[nH]1)C(=O)NC1CCCCC1 (stereo not drawn)
[1]
  growth inhibition: -1.65% (inactive)

## COC(=O)C(C)Oc1ccc(Cc2ncc(C(F)(F)F)cc2Cl)cc1 (stereo not drawn)
[2]
  IC90: 7660 nM
  pIC50: 5.51

## Cc1nc(SCc2ccccc2Cl)[nH]c(=O)c1C
[1]
  growth inhibition: -6.23% (inactive)

## CNC(=O)CSc1nc2ccccc2c(=O)[nH]1
[2]
  pIC50: 4.25

## Cc1[nH]c(=S)[nH]c(=O)c1C
[1]
  growth inhibition: -6.68% (inactive)

## O=C(CSc1ccccn1)NC1CCCCC1
[2]
  pIC50: < 4.02

## Cc1ccc(NC(=O)COC(=O)CCc2c[nH]c3ccccc23)cc1[N+](=O)[O-]
[2]
  IC90: 3590 nM
  pIC50: 6.07

## Cc1nc(SCC(=O)NCCC(C)C)[nH]c(=O)c1C
[2]
  IC90: 9790 nM
  pIC50: 5.31

## CC[N+](C)(CC)CCCCOc1ccc2c(c1)C(=O)c1cc(OCCCC[N+](C)(CC)CC)ccc1-2
[2]
  IC90: 2450 nM
  pIC50: 5.82

## c1ccc(/N=C2\N=C(Nc3ccccn3)c3ccccc32)nc1
[2]
  IC90: 1330 nM
  pIC50: 6.12

## O=C(CSc1nc2ccccc2c(=O)[nH]1)NC1CCCC1
[2]
  IC90: 550 nM
  pIC50: 7.52

## Cn1c(SCC(=O)NC2CCCCC2)nc2ccccc2c1=O
[1]
  growth inhibition: -10.1% (inactive)

## NNC(=O)c1ccncc1
[2]
  IC90: 320 nM
  pIC50: 6.72

## COC(=O)c1ccc(CNc2c(N3CCCC3)c(=O)c2=O)cc1
[1]
  growth inhibition: 23.6% (inactive)

## Cc1c[nH]c(=S)[nH]c1=O
[1]
  growth inhibition: -1.72% (inactive)

## COc1cccc(NC(=O)CSc2nc3c(c(=O)[nH]2)CCC3)c1
[1]
  growth inhibition: -9.73% (inactive)

## CO[C@H]1/C=C/O[C@@]2(C)Oc3c(C)c(O)c4c(O)c(c(C=NN5CCN(C)CC5)c(O)c4c3C2=O)NC(=O)/C(C)=C\C=C\[C@H](C)[C@H](O)[C@@H](C)[C@@H](O)[C@@H](C)[C@H](OC(C)=O)[C@@H]1C
[2]
  IC90: 10 nM
  pIC50: > 8.00

## Cc1cccc(/C=C/C(=O)c2ccc([N+](=O)[O-])o2)c1
[2]
  IC90: 800 nM
  pIC50: 6.51

## Cc1cc(=O)[nH]c(SCC(=O)NC2CCCCC2)n1
[1]
  growth inhibition: 8.24% (inactive)

## Cc1cccc(-c2oc3ccc(-c4ccc5c(c4)OCO5)cc3c2C#Cc2cncn2C)c1
[2]
  IC90: 3030 nM
  pIC50: 5.60

## NC(=O)c1cnccn1
[1]
  growth inhibition: 0.23% (inactive)

## Cc1ccc(C(=O)N/N=C(/CC(=O)c2cccs2)C(F)(F)F)cc1
[2]
  IC90: 2940 nM
  pIC50: 5.90

## CC(C)CCNC(=O)CSc1nc2c(c(=O)[nH]1)CCC2
[2]
  IC90: 1030 nM
  pIC50: 6.22

## Cc1nc(SCC(=O)NC2CCCC2)[nH]c(=O)c1C
[2]
  IC90: 10500 nM
  pIC50: 5.35

## O=C(CSc1nc2c(c(=O)[nH]1)CCCC2)NC1CCCCC1
[2]
  IC90: < 70 nM
  pIC50: > 7.52

## Nc1c(C(=O)NC2CCCCC2)nsc1C(=O)OCC(=O)NC1CCCCC1
[2]
  IC90: 42400 nM
  pIC50: 5.71

## Cc1ccc(NC(=O)CSc2nc3ccccc3c(=O)[nH]2)cc1Cl
[1]
  growth inhibition: -6.21% (inactive)

## O=C(CSc1nc2ccccc2c(=O)[nH]1)NC1CCCCC1
[2]
  IC90: 310 nM
  pIC50: 6.80

## CN(C(=O)CSc1nc2ccccc2c(=O)[nH]1)C1CCCCC1
[1]
  growth inhibition: -0.89% (inactive)

## Cc1cc(C)n2nc(N)c(N=Nc3ccccc3)c2n1
[2]
  IC90: 5540 nM
  pIC50: 5.41

## CN(C)C(=O)CSc1nc2ccccc2c(=O)[nH]1
[1]
  growth inhibition: -2.5% (inactive)

## Cc1cc(=O)[nH]c(=S)[nH]1
[1]
  growth inhibition: -8.51% (inactive)

## COc1c(N2CCNC(C)C2)c(F)cc2c(=O)c(C(=O)O)cn(C3CC3)c12 (stereo not drawn)
[2]
  IC90: 120 nM
  pIC50: 7.05

## Cc1nc(SCC(N)=O)[nH]c(=O)c1C
[1]
  growth inhibition: 1.58% (inactive)

## O=C(CSc1nc2ccccc2c(=O)[nH]1)NCc1ccc(Cl)cc1
[2]
  IC90: 980 nM
  pIC50: 6.36

## O=C(CSc1nc2ccccc2c(=O)[nH]1)N1CCOCC1
[1]
  growth inhibition: -3.23% (inactive)

## CCOc1ccc(-c2cc(C)[n+](CCc3ccc(OC)c(OC)c3)c(-c3ccc(OCC)cc3)c2)cc1
[2]
  IC90: 860 nM
  pIC50: 6.32

## COc1ccc(NC(=O)CSc2nc3ccccc3c(=O)[nH]2)cc1
[1]
  growth inhibition: 4.59% (inactive)

## COc1cccc(NC(=O)CSc2nc3ccccc3c(=O)[nH]2)c1
[1]
  growth inhibition: -1.31% (inactive)

## CC(C)N=c1cc2n(-c3ccc(Cl)cc3)c3ccccc3nc-2cc1Nc1ccc(Cl)cc1
[2]
  IC90: 310 nM
  pIC50: 8.00

## COC(=O)C(Nc1nc(SCC(=O)NC2CCCCC2)nc2ccccc12)c1ccccc1 (stereo not drawn)
[1]
  growth inhibition: 0.4% (inactive)

## Cc1cnc(SCC(=O)NC2CCCCC2)[nH]c1=O
[1]
  growth inhibition: -2.75% (inactive)

## CC1CCN(C(=O)CSc2nc3ccccc3c(=O)[nH]2)CC1
[1]
  growth inhibition: -3.58% (inactive)

## CN1CCC(NC(=O)CSc2nc3ccccc3c(=O)[nH]2)CC1
[1]
  growth inhibition: -7.75% (inactive)

## Cc1[nH]c2ccccc2c1C(=O)COC(=O)c1ccc([N+](=O)[O-])s1
[2]
  pIC50: < 4.30

## CCCc1cc(C(N)=S)ccn1
[2]
  pIC50: 5.22

## Nc1cc(=O)[nH]c(SCC(=O)NC2CCCCC2)n1
[1]
  growth inhibition: -2.55% (inactive)

## O=C(CSc1nccc(=O)[nH]1)NC1CCCCC1
[1]
  growth inhibition: -5.41% (inactive)

## CN[C@@H]1[C@H](O[C@H]2[C@H](O[C@H]3[C@H](O)[C@@H](O)[C@H](N=C(N)N)[C@@H](O)[C@@H]3N=C(N)N)O[C@@H](C)[C@]2(O)C=O)O[C@@H](CO)[C@H](O)[C@H]1O
[2]
  IC90: 140 nM
  pIC50: 7.15

## Cc1nc(SCC(=O)N(C)c2ccccc2)[nH]c(=O)c1C
[1]
  growth inhibition: -9.88% (inactive)

## O=C(CSc1nc2c(c(=O)[nH]1)CCC2)NC1CCCCC1
[2]
  IC90: < 70 nM
  pIC50: > 7.40
